“And” between values parts separate entries of the source, which are not always exact repeats. Identical values can stand only once.
Key:
BRD4 BD1 protein = BRD4 BD1 protein (Homo sapiens (Human), UniProt O60885); experiment: Fluorescence polarization binding affinity (Ki) with BRD4 BD1 protein; details: fluorescence polarization; Ki calculated from IC50
[1] = test system: multiple myeloma MM.1S cell line; experiment: Cell viability (CCK-8), multiple myeloma MM.1S; assay type: cell-based; details: MM.1S cells, 4 days, CCK-8, 50% inhibition of cell growth
Summary of the method: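 Cells (about 3000-5000 per well) exposed to 3-fold serial dilutions of compound for 4 days at 37° C, 5% CO2. CCK-8 added 2-4 h, absorbance at 450 nm, viability normalised to untreated cells after medium-only blank subtraction; IC50 is concentration giving 50% growth inhibition.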

BRD4 BD2 protein = BRD4 BD2 protein (Homo sapiens (Human), UniProt O60885); experiment: Fluorescence polarization binding affinity (Ki) with BRD4 BD2 protein; details: fluorescence polarization; Ki calculated from IC50

Ki (BRD4 BD1 protein)	IC50 ([1]; Homo sapiens, MM1.S, 96 h)	Ki (BRD4 BD2 protein)	IC50 [1]	Compound
53 nM	324 nM	25.7 nM		Cc1nnn2c1-c1ccc(-c3cccc4[nH]cnc34)cc1C(Nc1ccc(Cl)cc1)CC2 (stereo not drawn) [RB42, 9-(1H-benzo[d]imidazol-4-yl)-N-(4-chlorophenyl)-1-methyl-6,7-dihydro-5H-benzo[c][1,2,3]triazolo[1,5-a]azepin-7-amine]
134 nM	165 nM	8.4 nM and 18.8 nM		Cc1nnn2c1-c1ccc(-c3cnn(C)c3)cc1C(Nc1cccc(C#N)c1)CC2 (stereo not drawn) [LC07, 3-((1-methyl-9-(1-methyl-1H-pyrazol-4-yl)-6,7-dihydro-5H-benzo[c][1,2,3]triazolo[1,5-a]azepin-7-yl)amino)benzonitrile]
73.7 nM	8.54 nM	17.1 nM		Cc1nnn2c1-c1ccc(-c3ccncc3)cc1C(Nc1ccc(Cl)cc1)CC2 (stereo not drawn) [RA188, N-(4-chlorophenyl)-1-methyl-9-(pyridin-4-yl)-6,7-dihydro-5H-benzo[c][1,2,3]triazolo[1,5-a]azepin-7-amine]
34.6 nM	4.7 nM	15.2 nM		Cc1nnn2c1-c1ccc(-c3cnn(C)c3)cc1C(Nc1ccc(C#N)cc1)CC2 (stereo not drawn) [LC18, 4-((1-methyl-9-(1-methyl-1H-pyrazol-4-yl)-6,7-dihydro-5H-benzo[c][1,2,3]triazolo[1,5-a]azepin-7-yl)amino)benzonitrile]
29.1 nM	329 nM	24.1 nM		Cc1nnn2c1-c1ccc(-c3ccc(NC(=O)OC(C)(C)C)cc3)cc1C(Nc1ccc(Cl)cc1)CC2 (stereo not drawn) [RA194, tert-butyl (4-(7-((4-chlorophenyl)amino)-1-methyl-6,7-dihydro-5H-benzo[c][1,2,3]triazolo[1,5-a]azepin-9-yl)phenyl)carbamate]
62.9 nM	31.3 nM	9 nM		Cc1nnn2c1-c1ccc(-c3cnn(C)c3)cc1C(N(C)c1ccc(Cl)cc1)CC2 (stereo not drawn) [RB66, N-(4-chlorophenyl)-N,1-dimethyl-9-(1-methyl-1H-pyrazol-4-yl)-6,7-dihydro-5H-benzo[c][1,2,3]triazolo[1,5-a]azepin-7-amine]

More lines, now with the values behind:

Compound	Ki (BRD4 BD1 protein)	IC50 ([1]; Homo sapiens, MM1.S, 96 h)	Ki (BRD4 BD2 protein)	IC50 [1]
Cc1nnn2c1-c1ccc(-c3cnn(C)c3)cc1C(Nc1ccc3[nH]ccc3c1)CC2 (stereo not drawn) [LB98, N-(1H-indo1-5-yl)-1-methyl-9-(1-methyl-1H-pyrazol-4-yl)-6,7-dihydro-5H-benzo[c][1,2,3]triazolo[1,5-a]azepin-7-amine]	52.4 nM	21.5 nM	9.1 nM	
CNC(=O)c1cccc(NC2CCn3nnc(C)c3-c3ccc(-c4cnn(C)c4)cc32)c1 (stereo not drawn) [LB181]	132 nM	168 nM	14.5 nM	
Cc1nnn2c1-c1ccccc1C(Nc1cccc3cnccc13)CC2 (stereo not drawn) [LB103, N-(isoquinolin-5-yl)-1-methyl-6,7-dihydro-5H-benzo[c][1,2,3]triazolo [1,5-a]azepin-7-amine]	607 nM	389 nM	95.2 nM	
Cc1nnn2c1-c1ccc(-c3cnn(C)c3)cc1C(Nc1ccc3ncccc3c1)CC2 (stereo not drawn) [LB88, 1-methyl-9-(1-methyl-1H-pyrazol-4-yl)-N-(quinolin-6-yl)-6,7-dihydro-5H-benzo[c][1,2,3]triazolo[1,5-a]azepin-7-amine]	137 nM	24.3 nM	15.1 nM	
Cc1nnn2c1-c1ccc(C3=CCNCC3)cc1C(Nc1cccc(O)c1)CC2 (stereo not drawn) [LC97, 3-((1-methyl-9-(1,2,3,6-tetrahydropyridin-4-yl)-6,7-dihydro-5H-benzo[c][1,2,3]triazolo[1,5-a]azepin-7-yl)amino)phenol 2,2,2-trifluoroacetate]	795 nM	591 nM	40.6 nM	
CNC(=O)c1ccc(NC2CCn3nnc(C)c3-c3ccc(-c4cnn(C)c4)cc32)cc1 (stereo not drawn) [LB128]	89.3 nM	153 nM	22.8 nM	
Cc1nnn2c1-c1ccc(-c3cnn(C)c3)cc1C(Nc1ccc(Cl)cc1)CC2C (stereo not drawn) [BE25, N-(4-chlorophenyl)-1,5-dimethyl-9-(1-methyl-1H-pyrazol-4-yl)-6,7-dihydro-5H-benzo[c][1,2,3]triazolo[1,5-a]azepin-7-amine]	20.8 nM	3.47 nM	9.4 nM	
CC(=O)N1CC=C(c2ccc3c(c2)C(Nc2cccc(Cl)c2)CCn2nnc(C)c2-3)CC1 (stereo not drawn) [BH29, 1-(4-(7-((3-chlorophenyl)amino)-1-methyl-6,7-dihydro-5H-benzo[c][1,2,3]triazolo[1,5-a]azepin-9-yl)-3,6-dihydropyridin-1(2H)-yl)ethan-1-one]	39.5 nM	1 nM	1.26 nM	
Cc1nnn2c1-c1ccc(-c3cnn(C)c3)cc1C(Oc1ccc(Cl)cc1)CC2 (stereo not drawn) [BE128, 7-(4-chlorophenoxy)-1-methyl-9-(1-methyl-1H-pyrazol-4-yl)-6,7-dihydro-5H-benzo[c][1,2,3]triazolo[1,5-a]azepine]	176 nM	689 nM	17.1 nM	
Cc1nnn2c1-c1ccc(-c3cnn(C)c3)cc1C(Nc1cccc(CC(=O)O)c1)CC2 (stereo not drawn) [LB62, 2-(3-((1-methyl-9-(1-methyl-1H-pyrazol-4-yl)-6,7-dihydro-5H-benzo[c][1,2,3]triazolo[1,5-a]azepin-7-yl)amino)phenyl) acetic acid]	229 nM	14000 nM	13 nM	
Cc1nnn2c1-c1ccc(-c3cnn(C)c3)cc1C(Nc1ccc(C(N)=O)cc1)CC2 (stereo not drawn) [LB32, 4-((1-methyl-9-(1-methyl-1H-pyrazol-4-yl)-6,7-dihydro-5H-benzo[c][1,2,3]triazolo[1,5-a]azepin-7-yl)amino)benzamide]	235 nM	602 nM	43.7 nM	
Cc1nnn2c1-c1ccc(-c3cnn(C)c3)cc1C(Nc1ccccc1OCCO)CC2 (stereo not drawn) [LB90, 2-(2-((1-methyl-9-(1-methyl-1H-pyrazol-4-yl)-6,7-dihydro-5H-benzo[c][1,2,3]triazolo[1,5-a]azepin-7-yl)amino)phenoxy)ethanol]	134 nM	51.9 nM	16.5 nM	
Cc1nnn2c1-c1ccc(-c3cnn(C)c3)cc1C(Nc1ccccc1CC(=O)O)CC2 (stereo not drawn) [LB185, 2-(2-((1-methyl-9-(1-methyl-1H-pyrazol-4-yl)-6,7-dihydro-5H-benzo[c][1,2,3]triazolo[1,5-a]azepin-7-yl)amino)phenyl)acetic acid]	218 nM	1620 nM	14.5 nM	
Cc1nnn2c1-c1ccc(-c3cnn(C)c3)cc1C(Nc1ccccc1O)CC2 (stereo not drawn) [LB170, 2-((1-methyl-9-(1-methyl-1H-pyrazol-4-yl)-6,7-dihydro-5H-benzo[c][1,2,3]triazolo[1,5-a]azepin-7-yl)amino)phenol]	74.8 nM	152 nM	4.78 nM	
Cc1nnn2c1-c1ccc(-c3cnn(C)c3)cc1C(Nc1ccnn1C)CC2 (stereo not drawn) [BE118, 1-methyl-9-(1-methyl-1H-pyrazol-4-yl)-N-(1-methyl-1H-pyrazol-5-yl)-6,7-dihydro-5H-benzo[c][1,2,3] triazolo[1,5-a]azepin-7-amine]	272 nM	604 nM	23.6 nM	
CNC(=O)Cc1ccc(NC2CCn3nnc(C)c3-c3ccc(-c4cnn(C)c4)cc32)cc1 (stereo not drawn) [LB42, N-methyl-2-(4-((1-methyl-9-(1-methyl-1H-pyrazol-4-yl)-6,7-dihydro-5H-benzo[c][1,2,3]triazolo[1,5-a]azepin-7-yl)amino)phenyl)acetamide]	34.5 nM		8.19 nM	16 nM
COc1ccc2c(c1)C(Nc1ccc(F)cc1)CCc1onc(C)c1-2 (stereo not drawn) [BB189, N-(4-fluorophenyl)-8-methoxy-1-methyl-5,6-dihydro-4H-benzo[6,7]cyclohepta[1,2-d]isoxazol-6-amine]	172 nM	230 nM	92.1 nM	
Cc1nnn2c1-c1ccc(-c3cnn(C)c3)cc1C(Nc1ccc(OCCO)cc1)CC2 (stereo not drawn) [LB68, 2-(4-((1-methyl-9-(1-methyl-1H-pyrazol-4-yl)-6,7-dihydro-5H-benzo[c][1,2,3]triazolo[1,5-a]azepin-7-yl)amino)phenoxy)ethanol]	68.5 nM	112 nM	13 nM	
Cn1cc(-c2ccc3c(c2)C(Nc2ccc(Cl)cc2)CCn2nnc(C4CC4)c2-3)cn1 (stereo not drawn) [BE44, N-(4-chlorophenyl)-1-cyclopropyl-9-(1-methyl-1H-pyrazol-4-yl)-6,7-dihydro-5H-benzo[c][1,2,3]triazolo[1,5-a]azepin-7-amine]	173 nM	989 nM	48.1 nM	
Cc1nnn2c1-c1ccc(-c3cnn(C)c3)cc1C(Nc1cccc(C(=O)O)c1)CC2 (stereo not drawn) [LB97, 3-((1-methyl-9-(1-methyl-1H-pyrazol-4-yl)-6,7-dihydro-5H-benzo[c][1,2,3]triazolo[1,5-a]azepin-7-yl)amino)benzoic acid]	355 nM	8160 nM	27.9 nM	
CC(=O)N1CC=C(c2ccc3c(c2)C(Nc2ccc(Cl)cc2)CCn2nnc(C)c2-3)CC1 (stereo not drawn) [LD19, 1-(4-(7-((4-chlorophenyl)amino)-1-methyl-6,7-dihydro-5H-benzo[c][1,2,3]triazolo[1,5-a]azepin-9-yl)-3,6-dihydropyridin-1(2H)-yl)ethan-1-one]	38.7 nM	< 1 nM	9.67 nM	
CCc1nnn2c1-c1ccc(-c3cnn(C)c3)cc1C(Nc1ccc(Cl)cc1)CC2 (stereo not drawn) [BE02, N-(4-chlorophenyl)-1-ethyl-9-(1-methyl-1H-pyrazol-4-yl)-6,7-dihydro-5H-benzo[c][1,2,3]triazolo[1,5-a]azepin-7-amine]	128 nM	138 nM	42.8 nM	

Reference: patent publication US12286435B2, “Compound having benzo seven-membered ring structure, preparation method therefor, and use thereof” (BIONNA (BEIJING) MEDICAL TECHNOLOGY CO., LTD., priority 2019, dated 2025)
